# Results taken from patent publication US20170281611A1, “QUINOLINES AND THEIR USE FOR TREATING ENDOPLASMIC RETICULUM STRESS-CAUSED DISEASES” (EIGER BIOPHARMACEUTICALS, INC., priority 2014, published 2017).
# Where two headings read alike, the source gives them in different places.
# Legend:
# CSM14.1 cells = assay: ER stress cell survival assay (thapsigargin, […]-GLO); assay type: cell-based; conditions: dose-response
# Method: CSM14.1 cells were maintained in Complete Medium at 32° C.; wherein the Complete Medium contained Dulbecco's modified eagle medium (DMEM) with 10% fetal bovine serum (FSB), 1% L-glutamine, 100 IU/mL penicillin, and 100 μg/mL streptomycin. The cells were recovered from cultures by trypsinization and then seeded in 384 well plates (Greiner #781098) at a concentration of 1,000 cells/well in 20 μL of DMEM Assay Medium, wherein the DMEM Assay Medium contained 2% FBS, 100 IU/mL penicillin, and 100 μg/mL streptomycin. Seeding was performed using a MultiDrop Combi reagent broadcaster. The plates were incubated overnight at 32° C.
# A test compound was prepared by 2-fold serial dilution in 100% DMSO using a BIOMEK® 2000 liquid handler (Beckman Coulter). A dose-response curve containing 10 concentrations of the test compound was obtained. Using a BIOMEK® FX liquid handler (Beckman Coulter), 2.5 μL of the test compound was transferred from the 100% DMSO serial dilution plate to an intermediate plate containing 47.5 μL of DMEM Assay Medium containing 2% FBS, 100 IU/mL penicillin, and 100 μg/mL streptomycin and mixed. To reduce or eliminate the interference from the compound's precipitation, 6 μL of the diluted compound was immediately transferred to the assay plate to achieve a high compound concentration of 100 μM in 99% DMEM Assay Medium and 1% DMSO. After the assay plates were incubated for 2 hrs, 4 μL of 112.5 μM thapsigargin (TG) (DMSO stock diluted into Assay TC Medium) was dispensed into each testing well with a MultiDrop Combi reagent broadcaster for a final concentration of about 15 μM TG. The tissue culture media (4 μL) containing vehicle only was transferred manually to each control cell using a 16 channel electronic pipette. […] High luminescence indicates cell survival.
# Alternatively, a test compound was tested at a single compound concentration (e.g., 2 μM) to determine the effect of the compound on cell survival in comparison with vehicle.
# [1] = Pharmacokinetics in Sprague Dawley rats (Table 4); assay type: in vivo; conditions: rat; for MRT inf: read-out: MRT0-∞
# From the text: Compound D1 was formulated in 0.3% DMA/1% SOLUTOL®/98.7% saline. Compound D6 was formulated in 0.5% DMA/1% SOLUTOL®/94.5% 0.01N HCl in saline/4% NaOH (pH 4-5).
# [2] = tested on: human foreskin fibroblast (HFF) cells; assay: Toxicity in human foreskin fibroblast cells; assay type: cell-based; conditions: 100 μM
# MCF10A Cells = assay: In vitro viability, monolayers (2D) and spheroids (3D), normal breast tissue cells; assay type: cell-based; conditions: Homo sapiens, MCF-10A
# Method: (§1) The anticancer activity of a test compound was determined in vitro using mammalian tumor cells that grew as monolayers and spheroids. Spheroids represent the three-dimensional growth and organization of solid tumors, and thus are an intermediate model between monolayers of cells in culture and tumors in vivo. The cancer cell line tested was a breast cancer cell line, BT474. Normal breast tissue cells (MCF10A) were used as a control. The viability/proliferation of the cells were measured using […]-GLO® reagent.
# BT474 Cells = assay: In vitro anticancer activity, monolayers (2D) and spheroids (3D), BT474; assay type: cell-based; conditions: Homo sapiens
# Method: as §1
# [3] = Pharmacokinetics in Beagle dogs (Table 5); assay type: in vivo; conditions: dog; for MRT inf: read-out: MRT0-∞
# Method: For pharmacokinetic evaluation, 3 male Beagle dogs were intravenously (IV) dosed (1 mg/kg body weight) and 3 male Beagle dogs were orally (PO) dosed (10 mg/kg body weight) with a test compound. Blood (approximately 1.0 mL) was collected via femoral vein into tubes containing K3EDTA anticoagulant at 0, 0.017, 0.083, 0.5, 1, 2, 4, 6, 8, and 24 hours post-dosing. Plasma samples were analyzed by LC-MS/MS. The analytical results were confirmed using quality control samples for intra-assay variation. The accuracy of >66% of the quality control samples was between 80-120% of the known value(s). A standard set of pharmacokinetic parameters were generated from concentration data including Area Under the Curve (AUC0-t and AUC0-inf), elimination half-lives, clearances, volume of distribution and bioavailabilities (based on AUC0-t), maximum plasma concentration (C0; Cmax), and time to reach maximum plasma concentration (Tmax).
# SERCA = assay: Activation of SERCA, increase in Vmax (SR type not given); assay type: biochemical
# [4] = Sprague Dawley, in vivo, IV (2 mg/kg)
# [5] = Sprague Dawley, in vivo, PO (10 mg/kg)
# [6] = monolayers (2D), read-out: IC50 (2D)
# [7] = spheroids (3D), read-out: IC50 (3D)
# [8] = BT-474, monolayers (2D), read-out: IC50 (2D)
# [9] = BT-474, spheroids (3D), read-out: IC50 (3D)
# [10] = male, Beagle, plasma, IV (1 mg/kg)
# [11] = male, Beagle, plasma, PO (10 mg/kg)
compound,measurement,setting,value
"O=C(c1cccc(Cl)c1)N1CCN(c2ccnc3cc(Cl)ccc23)CC1 [Compound D3, (3-Chlorophenyl)(4-(7-chloroquinolin-4-yl)piperazin-1-yl)methanone]",EC50,CSM14.1 cells,20 to 100 µM
"Cc1ccc(C(=O)N2CCN(c3ccnc4cc(Cl)ccc34)CC2)cc1 [Compound D4, (4-(7-Chloroquinolin-4-yl)piperazin-1-yl)(p-tolyl)methanone]",EC50,CSM14.1 cells,20 to 100 µM
"Cc1ccc(C(=O)N2CCN(c3ccnc4cc(Cl)ccc34)CC2)cc1Cl [Compound D5, (3-Chloro-4-methylphenyl)(4-(7-chloroquinolin-4-yl)piperazin-1-yl)methanone]",EC50,CSM14.1 cells,< 20 µM
"O=C(c1ccc(N2CCCC2)c([N+](=O)[O-])c1)N1CCN(c2ccnc3cc(Cl)ccc23)CC1 [Compound D6, (4-(7-Chloroquinolin-4-yl)piperazin-1-yl)(3-nitro-4-(pyrrolidin-1-yl)phenyl)methanone]",AUC(0-inf),[1]; [4],8640 ± 650 ng·h/mL
same,AUC(0-t),[1]; [4],8600 ± 659 ng·h/mL
same,Cmax,[1]; [4],39.7 ± 1.06 µM
same,Tmax,[1]; [4],0.02 h
same,clearance,[1]; [4],3.83 mL/min/kg
same,half-life,[1]; [4],0.98 ± 0.13 h
same,MRT inf,[1]; [4],0.98 ± 0.09 h
same,Vd,"[1]; Sprague Dawley, in vivo, IV (2 mg/kg), read-out: Vz",0.33 ± 0.03 L/kg
same,AUC(0-inf),[1]; [5],21200 ± 1940 ng·h/mL
same,AUC(0-t),[1]; [5],19900 ± 1510 ng·h/mL
same,Cmax,[1]; [5],13 ± 3.56 µM
same,Tmax,[1]; [5],0.42 ± 0.14 h
same,half-life,[1]; [5],1.79 ± 0.39 h
same,MRT inf,[1]; [5],2.96 ± 0.66 h
same,F,[1]; PO (10 mg/kg) vs IV (2 mg/kg),44%
same,toxicity in HFF cells,[2],no toxicity
same,IC50,MCF10A Cells; [6],> 50 µM
same,IC50,MCF10A Cells; [7],> 50 µM
same,IC50,BT474 Cells; [8],5 µM
same,IC50,BT474 Cells; [9],8 µM
same,F,"[3]; PO (10 mg/kg) vs IV (1 mg/kg), based on AUC0-t",82%
same,AUC(0-inf),[3]; [10],14300 ± 2220 ng·h/mL
same,AUC(0-t),[3]; [10],13900 ± 2100 ng·h/mL
same,Cmax,[3]; [10],12.7 ± 2.4 µM
same,Tmax,[3]; [10],0.02 h
same,clearance,[3]; [10],1.17 mL/min/kg
same,half-life,[3]; [10],4.8 ± 0.4 h
same,MRT inf,[3]; [10],5.6 ± 0.4 h
same,Vd,"[3]; male, Beagle, plasma, IV (1 mg/kg), read-out: Vz",0.49 ± 0.04 L/kg
same,AUC(0-inf),[3]; [11],114000 ± 15500 ng·h/mL
same,AUC(0-t),[3]; [11],110000 ± 15500 ng·h/mL
same,Cmax,[3]; [11],26.5 ± 1.9 µM
same,Tmax,[3]; [11],0.83 ± 0.29 h
same,half-life,[3]; [11],4.8 ± 0.6 h
same,MRT inf,[3]; [11],7 ± 0.3 h
same,EC50,CSM14.1 cells,< 20 µM
O=C(C1CC1)N1CCN(c2ccnc3cc(Cl)ccc23)CC1 [Compound D7],EC50,CSM14.1 cells,< 20 µM
"CCNc1ccc(C(=O)Nc2cccc3ccc(C)nc23)cc1 [Compound J1, 4-(Ethylamino)-N-(2-methylquinolin-8-yl)benzamide]",Increase in Vmax at 10 μM,SERCA,A′ (A′ represents an increase greater than 50%)
same,EC50,CSM14.1 cells,< 20 µM
"Cc1ccc2cccc(NC(=O)c3ccc(O)cc3)c2n1 [Compound J2, 4-Hydroxy-N-(2-methylquinolin-8-yl)benzamide]",Increase in Vmax at 10 μM,SERCA,A′ (A′ represents an increase greater than 50%)
same,EC50,CSM14.1 cells,< 20 µM
"CCN(CC)CCNC(=O)c1c(C)[nH]c(/C=C2\C(=O)Nc3ccc(F)cc32)c1C [Sutent, reference compound]",IC50,MCF10A Cells; [6],3 µM
same,IC50,MCF10A Cells; [7],7 µM
same,IC50,BT474 Cells; [8],10 µM
same,IC50,BT474 Cells; [9],10 µM
